Where two headings read alike, the source gives them in different places.
Columns and labels:
prolactin incretion = test: inhibiting action on prolactin incretion after a single oral dose; assay type: in vivo; settings: single oral dose of 100 mcg/kg b.w., female rats, time after treatment
Procedure: At a single oral dose of 100 micrograms per kg body weight (100 mcg/kg b.w.) in female rats, the inhibiting action on the prolactin incretion remains remarkably high more than 72 hours after treatment.

young female rats = test: onset of sexual maturity in young female rats at impuberal stage; assay type: in vivo; settings: 25 mcg/kg body weight/day per os
[1] = system: adult female rats (Sprague Dawley); test: pup weight and starvation during lactation of treated mother rats; assay type: in vivo
Procedure: 15 adult female rats (Sprague Dawley) at their second delivery were randomly divided into 3 groups of 5 animals each. One group served as control, the other two groups were treated with different dosages of cabergoline: animals of the former group received it at the dose of 25 mcg/kg b.w./day; animals of the latter one received it at the dose of 100 mcg/kg b.w./day, starting from the day following the delivery.
Cabergoline was administered with a pellet of standard feed for breeding rats (Altromin MT@ of the firm Rieper, Bolzano). After complete consumption of the medicated pellet, food and water were made available "ad libitum".
At the dose of 100 mcg/kg b.w./day 100% of pups starved already within the first week of lactation (see Table 1).

mice = settings: oral route, cited from earlier work
rats = settings: oral route, cited from earlier work
pregnant rats = test: gestation of treated pregnant rats; assay type: in vivo; settings: 25 mcg/kg b.w./day per os, control rats had normal delivery
adult female rats = test: fertility of adult female rats treated before mating; assay type: in vivo; settings: 25 mcg/kg b.w./day per os for 10 days before mating

For `C=CCN1C[C@H](C(=O)N(CCCN(C)C)C(=O)NCC)C[C@@H]2c3cccc4[nH]cc(c34)C[C@H]21` [cabergoline, 1-ethyl-3-(3'-dimethylaminopropyl)-3-(6'-allylergoline-8'β-carbonyl)-urea], which “time for which the inhibiting action on the prolactin incretion remains remarkably high” value (prolactin incretion) is on record?
Its value is “more than 72 hours”.

What about the “onset of the sexual maturity” value (young female rats) of the same compound?
The value was “remarkably delayed”.

What about the “Pups mean weight (in grams) at lactation days 7th” value ([1]; 25 mcg/kg b.w./day to the mother, 7th day of lactation, mean ± SD) of the same compound?
The value was 7.9 ±1.6 grams.

What about the “Pups mean weight (in grams) at lactation days 14th” value ([1]; 25 mcg/kg b.w./day to the mother, 14th day of lactation, mean ± SD) of the same compound?
Its value is 10.5 ±0.5 grams.

What about the dead pups ([1]; 25 mcg/kg b.w./day to the mother, 14th day of lactation, of 63 pups) of the same compound?
The dead pups was 40.

And the “Pups mean weight (in grams) at lactation days 21st” value ([1]; 25 mcg/kg b.w./day to the mother, 21st day of lactation, mean ± SD)?
Its value is 14.7 ±0.7 grams.

And the “body weight increase of the pups” value ([1]; 25 mcg/kg b.w./day to the mother, at the 7th, 14th and 21st day of lactation)?
Its value is “remarkably reduced”.

And the pups starved ([1]; 25 mcg/kg b.w./day to the mother, within the second week of lactation)?
Its pups starved is “about 60%”.

And the dead pups ([1]; 100 mcg/kg b.w./day to the mother, 7th day of lactation, of 65 pups)?
Its dead pups is “- (65 dead)”.

And the pups starved ([1]; 100 mcg/kg b.w./day to the mother, within the first week of lactation)?
The pups starved was 100%.

And the “LD50 (Lethal Dose 50)” value (mice; female mice)?
Its value is 200 mg/kg b.w.

And the “LD50 (Lethal Dose 50)” value (mice; male mice)?
The value was 350 mg/kg b.w.

And the LD50 (rats; female rats (second value of 'respectively'))?
Its LD50 is 350 mg/kg b.w.

And the LD50 (rats; male rats (first value of 'respectively'))?
Its LD50 is 400 mg/kg b.w.

And the gestation (pregnant rats)?
The gestation was “interrupted their gestation after about ten days”.

And the fertility (adult female rats)?
Its fertility is “completely inhibited”.

— patent EP0470325A1, “Composition and method to keep under control the reproduction rate of vertebrate animals by means of a composition containing peripheral dopamine agonists” (priority 1990, dated 1992)
